Laboratory results from patent US20130005678A1, “Methods and Compositions for Treating or Ameliorating Cancer Using Gemcitabine-5'-Elaidate” (CLAVIS PHARMA ASA, priority 2010, published 2013).

What was measured:
WiDr cell line = assay: Platinum accumulation in DNA (WiDr); type: cell-based, human; settings: oxaliplatin 200 μM combined with Gemcitabine-5′-elaidate 0.004 μM
Procedure: The effect on DNA platinum accumulation in DNA after exposure to oxaliplatin and oxaliplatin combined with Gemcitabine-5′-elaidate (oxaliplatin [200 μM] combined with Gemcitabine-5′-elaidate [0.004 μM]) is also determined.

A549 human NSCLC = assay: Combination study in vitro, growth inhibition, median effect analysis (A549); type: cell-based
Procedure: (§1) The cell lines A549 human NSCLC and WiDr human colon carcinoma are used to determine the combination index and also the effect of Gemcitabine-5′-elaidate on the cell cycle. A sulforhodamine B colorimetric assay is used to determine growth inhibition after 72 hours. Pemetrexed combinations are tested using the MTT assay. Combinations with pemetrexed are also tested in the WiDr-LF cell line, which are WiDr cells cultured under low folate conditions. The IC25 and IC50 values (inhibitory concentrations at 25% or 50%, respectively) are calculated. The IC25 value is used for combinations with serial dilutions of oxaliplatin or docetaxel, and the IC50 value is used for pemetrexed combinations. Median effect analysis is performed.

[1] = tested on: human colon cancer Co6044; assay: Antitumor activity in human colon xenograft Co6044 (intraperitoneal); type: in vivo; settings: intraperitoneally every third day five times
Procedure: (§2) Fragments of human colon cancers Co5776 and Co6044 are implanted subcutaneously in NCR female mice (7-8 mice/group). Gemcitabine (120 mg/kg) and gemcitabine-5′-elaidic acid ester (40 mg/kg) are administered intraperitoneally, every third day for five times.

P388 leukemia cells = assay: Antitumor effect in P388 murine leukemia model; type: in vivo; settings: B6D2F1 female mice; intraperitoneal; single doses or daily for 10 consecutive days; all tested doses and schedules
WiDr-LF cell line = assay: Combination with pemetrexed under low folate conditions (WiDr-LF); type: cell-based, human; settings: MTT assay
Procedure: as §1

CEM cells = assay: Intracellular dFdCTP level in CEM cells with or without dipyridamole (HPLC); type: cell-based, human
Procedure: hENT1 can inhibited in vitro by various agents including dipyridamole, NBMPR, and NBI. In order to test whether gemcitabine-5′-elaidate entry into the cells is independent of a nucleoside transporter such as hENT1, dipyridamole is used to block hENT1. The intracellular level of dFdCTP is determined in CEM cells after 60 minutes exposure to either dFdC or gemcitabine-5′-elaidate, with or without the addition of dipyridamole (DP). The compounds are administered at 10 μM, and the triphosphates are determined using HPLC. Deamination is blocked using tetrahydrouridine.

Co6044 = assay: Oral activity and schedule dependency in mice with Co6044; type: in vivo, human
Procedure: Oral administration of Gemcitabine-5′-elaidic acid ester and gemcitabine is tested in NCr:nu/nu mice for potential antitumor activity. Treatment is every third day repeated five times. In a follow-up experiment, the antitumor activity of oral and intraperitoneal treatment is compared in this colon cancer model (Co6044). The doses for oral treatment with Gemcitabine-5′-elaidic acid ester and gemcitabine are lower (20, 30, or 40 mg/kg) than in the previous experiment.
In this experiment, the antitumor activity of oral Gemcitabine-5′-elaidic acid ester in three different administration schedules is compared: every 3 days times 5, daily times 5, and once weekly times 2. Three doses are tested per schedule.

[2] = tested on: CCRF-CEM human leukemia cell line; assay: Triphosphate accumulation and retention in CCRF-CEM cells; type: cell-based
Source text: Drugs: Gemcitabine-5′-elaidate was provided by Clavis Pharma (Oslo, Norway), tetra hydro uridine (THU) was from Calbiochem (Merck, Darmstadt, Germany), dipyridamole and ara-C were from Sigma-Aldrich (St. Louis, Mo., USA) and dFdC was from Eli-Lilly (Indianapolis, Ind., USA). The radioactively labeled drugs were obtained from Moravek (Brea, Calif., USA); the drugs were labeled with tritium on the 5-C site of the base. A mix of radioactive and non-radioactive compounds was made for exposure of cells; dFdC and CP-4126 were used at a final concentration of 8.9 μM and a specific activity of 586 and 391 mCi/mmol, respectively.
Cell lines: For the experiments the CCRF-CEM human leukemia cell line and its dCK negative variant (CEM/dCK−) were used. The cell lines were cultured in RPMI medium (BioWhittaker, Verviers, Belgium) supplemented with 10% fetal calf serum (PAA laboratories, Pasching, Austria) and HEPES buffer (BioWhittaker). Of the nucleoside influx transporters, the CEM cell line only expresses the equilibrative nucleoside transporter (hENT) and not the concentrative nucleoside transporter (hCNT). Belt et al. Adv. Enzyme Regul., 1993, 33, 235-52. Dipyridamole (DP) was used to inhibit the influx of the drugs by hENT. In order to get a clean picture, THU was also added to inhibit deamination of ara-C and dFdC.
Triphosphate accumulation: Cells were treated with 1 and 10 μM of dFdC, while for the lipophilic analogs 10 and 100 μM was used. The cells were incubated for 60 minutes and retention of the triphosphates was investigated after 60 and 120 minutes incubation in drug-free medium. Dipyridamole was added to inhibit drug influx by the hENT transporter. After incubation the cell pellet was resuspended in ice-cold PBS and incubated for 20 minutes at 4° C. with 40% trichloroacetic acid. After centrifugation (10,000 g, 10 min, 4° C.) the supernatant was treated with a 2-fold excess of trioctylamine/1,1,2-trichlorotrifluorethane (1:4) and spun down (10,000 g, 1 min) and the aqueous phase was stored at −20° C. until analysis by HPLC on a Whatman Partisphere SAX column (GE healthcare, Chalfont St. Giles, UK) using gradient (dFdC-TP) elution as described earlier. Noordhuis et al., Leuk. Res., 1996, 20, 127-34; Ruiz van Haperen, et al., Biochem. Pharmacol., 1994, 48, 1327-39.

[3] = tested on: human colon cancer Co5776; assay: Antitumor activity in human colon xenograft Co5776; type: in vivo
Procedure: as §2
NCr female mice implanted subcutaneously with human colon carcinoma fragments, Co5776, are treated intraperitoneally. Two different schedules of gemcitabine-5′-elaidic acid ester are administered, once weekly times 2 (Days 11 and 18), and every third day times 5 (Days 11, 14, 17, 20, and 23). Antitumor activity of gemcitabine-5′-elaidic acid ester is similar for 150 mg/kg once weekly, administered twice or 40 mg/kg every third day administered five times.

human glioma cells U373 = assay: Antitumor activity in human glioma xenograft model U373 (subcutaneous); type: in vivo; settings: NCR mice, intraperitoneal
Source text: NCR mice are inoculated subcutaneously on Day 0 with human glioma cells U373. Treatment (intraperitoneal) starts on Day 7, either every third day or weekly.

[4] = 72 hours, sulforhodamine B assay

Compound: CCCCCCCC/C=C/CCCCCCCC(=O)OC[C@H]1O[C@@H](n2ccc(N)nc2=O)C(F)(F)[C@@H]1O [gemcitabine-5′-elaidic acid ester]
- platinum adducts in DNA, oxaliplatin combined vs oxaliplatin alone (WiDr cell line): increase of platinum adducts
- combination effect with docetaxel (A549 human NSCLC; [4]): antagonistic
- combination effect with oxaliplatin (A549 human NSCLC; [4]): synergistic
- combination effect with pemetrexed (A549 human NSCLC; MTT assay): Antagonistic activity
- activity compared with gemcitabine ([1]; 40 mg/kg vs gemcitabine 120 mg/kg): similar
- antitumor effect ([1]; NCR female mice, gemcitabine 120 mg/kg, gemcitabine-5′-elaidic acid ester 40 mg/kg): Significant antitumor effect
- antitumor activity (P388 leukemia cells): significant antitumor activity
- antagonistic activity of combination with pemetrexed under low folate conditions (WiDr-LF cell line): slightly reduced
- dFdCTP levels with inhibitor (DP) compared to without inhibitor (CEM cells; 10 μM): even increased
- time of maximum dFdCTP concentration (CEM cells; 10 μM, after exposure): reached at the last time point measured
- dFdCTP accumulation with blocked nucleoside transporters (FIG. 3) (CEM cells; transporters blocked): accumulates in cells despite blocking transporters
- antitumor activity (Co6044; every 3 days times 5, daily times 5, once weekly times 2, all tested schedules): High antitumor activity
- dose dependence of activity (Co6044; three doses per schedule): dose dependent
- retention of dFdC-TP concentration after washing away the drugs ([2]; 60 and 120 minutes in drug-free medium): retained at a similar level
- effect of dipyridamole on dFdC-TP accumulation ([2]; hENT inhibited by dipyridamole): even increased the concentration of triphosphates
- activity compared with gemcitabine ([3]; 40 mg/kg vs gemcitabine 120 mg/kg, intraperitoneally every third day five times): similar
- antitumor effect ([3]; NCR female mice, intraperitoneally every third day five times, gemcitabine 120 mg/kg, gemcitabine-5′-elaidic acid ester 40 mg/kg): Significant antitumor effect
- antitumor activity, comparison of schedules ([3]; NCr female mice, intraperitoneal, 150 mg/kg once weekly times 2 vs 40 mg/kg every third day times 5): similar
- antitumor effect compared with gemcitabine (human glioma cells U373; dosed Days 7 and 14 (weekly)): better than that of gemcitabine
- antitumor effect compared with gemcitabine (human glioma cells U373; every third day schedule from Day 7): equal to gemcitabine
